# According to US20180289666A1, “FLAVONOLIGNANS FOR TREATMENT OF AUTOIMMUNE INFLAMMATORY DISEASES” (Macau University of Science and Technology, priority 2017, published 2018):
# How the values were obtained:
# [1] = tested on: AIA rats; assay: Plasma metabolomics by LC-MS/MS in AIA rats; type: in vivo, Sprague-Dawley (SD) rats
# Protocol: (§1) The plasma sample (200 μL) was thawed on ice for 5 min prior to sample preparation and was mixed with 200 μL of 10 mM N-ethylmaleimide (NEM) in PBS buffer solution and 1000 μL of methanol containing internal standard (I.S.) Phe-d5 in 10 ng/ml. This mixture was incubated at −20° C. for 20 min, and then centrifuged at 12000 rpm for 10 min at 4° C. The supernatant was completely dried under nitrogen flow (Pressure Blowing Concentrator, Tokyo Rikakika, Tokyo, Japan) and reconstituted with distilled water.
# LC-MS/MS analysis was performed on A Waters ACQUITY UPLC coupled with a 4000 Q-TRAP mass spectrometer. Chromatographic separation was carried on a Waters X Bridge™ BEH C18 analytical column (2.5 μm, 3.0×100 mm; Waters, Torrance, Calif.) with a mobile phase composed of 0.1% formic acid water (solvent A) and methanol (solvent B) which was running in a gradient program: 0-3.0 min (0%-1% B); 3.0-10.0 min (1-3% B); 10.0-14.0 min (3-50% B); 14.0-18.0 min (50-95% B); 18.0-22.0 min (95-0% B); followed by a 3-min re-equilibration step. The injection volume was 10 μl at 4° C. and flow rate was 0.6 ml/min. Electrospray (ESI) source were used in both positive and negative ion mode. […]
# The normalized data were exported and further processed by PCA and PLS-DA using a multivariate analysis package SIMCA-P software (Umea, Sweden). Model quality was evaluated based on the relevant values of R^2 and Q^2. […]
# [2] = tested on: key enzymes involved in lipid metabolism in liver; assay: Real-time PCR and Western blot of lipid metabolism enzymes in liver of AIA rats; type: in vivo, Sprague-Dawley (SD) rats
# Protocol: Total RNA was isolated from the frozen liver of the AIA model using TRIzol® Reagent (Life technology, USA). mRNA was purified by binding to poly(dT) magnetic beads using Dynabeads® mRNA DIRECT™ Kit (Life technology, Norway) and reverse transcribed using SuperScript® III reverse transcriptase (Invitrogen, California, USA) as described by the manufacturer. Quantitative real-time PCR was performed using SYBR Green (Sigma-Aldrich, Louis, USA) on the ViiA™ 7 Real-Time PCR System (Applied Biosystems, FosterCity, USA). Quantitative RT-PCR analysis was performed using SYBR Green reagents and ViiA™ 7 Real-Time PCR System. Gene expression levels were calculated from cycle threshold (Ct) values and normalized with control gene GAPDH.
# Liver tissue homogenates of AIA and MCD animal models were lysed in RIPA buffer (50 mM pH 7.4 Tris, 150 mM NaCl, 1% Triton X-100, 1% sodium deoxycholate, 0.1% SDS, sodium orthovanadate, sodium fluoride and EDTA) containing protease inhibitor cocktails (Roche Life Science, USA). Protein concentration was determined using the BCA protein assay kit (BIO-RAD, USA). Equal amounts of total protein were resolved using SDS-PAGE and transferred onto PVDF membranes (Millipore, Darmstadt, Germany). After incubation in a blocking solution containing with 5% (w/v) skim milk (Nestle Carnation, New Zealand) in TBST buffer (10 mM tris-buffered saline and 0.1% Tween20) for 1 h at room temperature and incubated with primary antibodies overnight at 4° C. The membranes were washed three times with 1×TBST solutions and incubated with the appropriate secondary antibodies at room temperature for 45 min, and subsequently visualized with an enhanced chemiluminescence detection kit (SuperSignal™ West Pico Chemiluminescent Substrate, Thermo Scientific, USA). β-actin was used as the loading control for the experimental data analysis.
# [3] = tested on: MCD diet induced NASH mice; assay: Plasma metabolomics by LC-MS/MS in MCD diet induced NASH mice; type: in vivo, C57Bl/6 mice; conditions: Silybin 300 mg/kg, * P < 0.05, ** P < 0.01
# Protocol: as §1
# LC-MS/MS analysis was performed on A Waters ACQUITY UPLC coupled with a 4000 Q-TRAP mass spectrometer. Chromatographic separation was carried on a Waters X Bridge™ BEH C18 analytical column (2.5 μm, 3.0×100 mm; Waters, Torrance, Calif.) with a mobile phase composed of 0.1% formic acid water (solvent A) and methanol (solvent B) which was running in a gradient program: 0-3.0 min (0%-1% B); 3.0-10.0 min (1-3% B); 10.0-14.0 min (3-50% B); 14.0-18.0 min (50-95% B); 18.0-22.0 min (95-0% B); followed by a 3-min re-equilibration step. The injection volume was 10 μl at 4° C. and flow rate was 0.6 ml/min. Electrospray (ESI) source were used in both positive and negative ion mode. The source parameters were set as follows: gas temperature: 450° C.; the ion spray voltage, ±4500 V; ion source gas 1 (nebulizer gas) 40 psi (N2); ion source gas 2 (auxiliary gas), 40 psi (N2); curtain gas: 20 psi. The MS/MS analysis was acquired in targeted MS/MS (MRM) mode with the collision energy ranging from 10 V to 40 V. All UPLC-MS data were obtained by AB Analyst Software (Version 1.6.2). Table 1 lists the 72 metabolites that are identified in the plasma samples from both AIA and MCD-diet induced NASH animal studies. The intensity of each ion was normalized with respect to peak area of I.S. for each chromatogram prior to multivariate statistical analysis.
# The normalized data were exported and further processed by PCA and PLS-DA using a multivariate analysis package SIMCA-P software (Umea, Sweden). Model quality was evaluated based on the relevant values of R^2 and Q^2. Potential markers of interest were extracted from the values of variable importance in the projections (VIP>1), which were constructed from PLS-DA analysis. P values were obtained from Student's t-test (P<0.05). Hierarchical clustering analysis (HCA) was performed using bioinformatics software Multi Experiment Viewer (The Institute of Genomic Research, MA, USA) for visualization and organization of metabolite profiles.
# Plasma samples of MCD-diet model were analyzed by LC-MS/MS for better understanding the functional metabolism in NASH model as well as the mechanism of Silybin treatment. […] OPLS-DA (R^2X=0.877, Q^2=0.749) was also used to identify and rank signature metabolites explaining most of the variance of metabolomes among the control, model and treatment group based on VIP scores and/or P value (FIG. 9). Unsupervised hierarchical clustering of this metabolite set classified NASH vs. control mice with 100% accuracy in both cohorts. A 15-metabolite signature with top-ranked VIP scores (VIP>1.0) separated control, model and Silybin treatment groups (p<0.05) was identified in Table 18 that distinguish each groups.
smiles,measurement,setting,value
COc1cc([C@H]2Oc3cc([C@H]4Oc5cc(O)cc(O)c5C(=O)[C@@H]4O)ccc3O[C@@H]2CO)ccc1O (stereo in doubt) [Silybin],metabolic network (plasma metabolites),[1],effectively repair the metabolic network
same,expression of aP2 in the liver,[2]; AIA rats liver,reduced
same,"mRNA and/or protein expression of LPL, CYP7A1, and SREBP1 in liver",[2]; AIA rats liver,greatly repressed
same,overexpression of SREBP1,[2]; AIA rats liver,not modulated
same,"increased mRNA levels of hepatic lipogenesis genes (SREBP1, LXR, FXR)","[2]; AIA rats liver, real-time PCR",attenuated
same,changes of key lipogenic enzyme in both gene and protein levels,"[2]; AIA rats liver, real-time PCR and Western blot",ameliorated changes
same,mRNA level of LPL in liver,"[2]; AIA rats, real-time PCR, increase in the AIA model group",reversed
same,Trend SB300 VS Model: Malondialdehyde (MDA),[3],↓**
same,"Trend SB300 VS Model: 4-(2-aminophenyl)-2,4-dioxobutanoic acid",[3]; plasma,↓*
same,Trend SB300 VS Model: 5-hydroxytryptamine,[3]; plasma,↓**
same,Trend SB300 VS Model: GSH,[3]; plasma,↑*
same,Trend SB300 VS Model: GSH/GSSG,[3]; plasma,↑*
same,Trend SB300 VS Model: GSSG,[3]; plasma,↓*
same,Trend SB300 VS Model: Glycochenodeoxycholic acid(GCDCA),[3]; plasma,↓*
same,Trend SB300 VS Model: L-Kynurenine,[3]; plasma,↑**
same,Trend SB300 VS Model: LPC(16:1),[3]; plasma,↓*
same,Trend SB300 VS Model: LPC(18:0),[3]; plasma,↑*
same,Trend SB300 VS Model: LPC(20:1),[3]; plasma,↑*
same,Trend SB300 VS Model: LPC(22:6),[3]; plasma,↑*
same,Trend SB300 VS Model: N-Phenylacetylglycine,[3]; plasma,↓*
same,Trend SB300 VS Model: Ophthalmic acid,[3]; plasma,↓*
same,Trend SB300 VS Model: Oxaloacetate,[3]; plasma,↑*
same,Trend SB300 VS Model: Proline,[3]; plasma,↓*
same,Trend SB300 VS Model: Trigonelline,[3]; plasma,↑**
same,Trend SB300 VS Model: Uric acid,[3]; plasma,↓**
same,Trend SB300 VS Model: Uridine,[3]; plasma,↓**
same,Trend SB300 VS Model: Ursodeoxycholic acid (UDCA),[3]; plasma,↓*
